Converted amounts (≈) assume the structure as drawn.
How the values were obtained:
[1] = test system: Staphylococcus aureus; test: Antibacterial activity against methicillin-resistant Staphylococcus aureus assessed as reduction in microbial growth measured for 24 hrs by CLSI based broth microdilution method; assay type: functional
[2] = target: DNA gyrase (Staphylococcus aureus, UniProt P0A0K8+P20831); test: Inhibition of Staphylococcus aureus DNA gyrase; assay type: protein-complex assay
[3] = test system: Staphylococcus aureus; test: Antibacterial activity against […] Staphylococcus aureus ATCC 25923 assessed as reduction in bacterial growth incubated for 24 hrs by micro-broth dilution method; assay type: functional
[4] = target: DNA gyrase (Escherichia coli, UniProt P0AES4+P0AES6); test: Inhibition of Escherichia coli DNA gyrase assessed as reduction in enzyme-mediated supercoiling of relaxed plasmid by fluorescence polarization assay; assay type: protein-complex assay
[5] = test system: Staphylococcus aureus; test: Antibacterial activity against […] Staphylococcus aureus ATCC 6538 assessed as reduction in bacterial growth incubated for 18 hrs by CLSI based broth-dilution method; assay type: functional
[6] = test system: Staphylococcus aureus; test: Antibacterial activity against […] Staphylococcus aureus ATCC 6538 assessed as microbial growth inhibition incubated for 24 hrs by broth micro-dilution analysis; assay type: functional
[7] = test system: Staphylococcus aureus; test: Antibacterial activity against Staphylococcus aureus assessed as reduction in bacterial growth by CLSI based two-fold microdilution method; assay type: functional

DNA gyrase (Staphylococcus aureus, UniProt P0A0K8+P20831), sequence (P0A0K8 whole entry): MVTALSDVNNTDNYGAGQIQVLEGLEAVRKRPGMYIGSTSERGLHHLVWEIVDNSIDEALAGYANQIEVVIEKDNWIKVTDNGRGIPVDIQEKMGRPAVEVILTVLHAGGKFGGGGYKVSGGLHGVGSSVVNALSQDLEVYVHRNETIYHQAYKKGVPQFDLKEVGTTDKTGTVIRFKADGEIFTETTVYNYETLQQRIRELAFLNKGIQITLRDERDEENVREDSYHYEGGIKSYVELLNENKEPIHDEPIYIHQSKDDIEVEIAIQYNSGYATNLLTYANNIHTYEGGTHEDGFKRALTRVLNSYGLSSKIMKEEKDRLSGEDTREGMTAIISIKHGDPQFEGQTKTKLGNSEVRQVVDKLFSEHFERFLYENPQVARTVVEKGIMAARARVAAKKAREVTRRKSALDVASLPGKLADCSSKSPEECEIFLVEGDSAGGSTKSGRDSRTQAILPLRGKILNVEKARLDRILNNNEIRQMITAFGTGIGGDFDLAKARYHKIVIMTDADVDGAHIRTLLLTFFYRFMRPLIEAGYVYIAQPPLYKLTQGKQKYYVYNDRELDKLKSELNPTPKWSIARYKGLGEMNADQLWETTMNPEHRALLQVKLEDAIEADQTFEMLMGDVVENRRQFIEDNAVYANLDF
DNA gyrase (Staphylococcus aureus, UniProt P0A0K8+P20831), sequence (P20831 whole entry): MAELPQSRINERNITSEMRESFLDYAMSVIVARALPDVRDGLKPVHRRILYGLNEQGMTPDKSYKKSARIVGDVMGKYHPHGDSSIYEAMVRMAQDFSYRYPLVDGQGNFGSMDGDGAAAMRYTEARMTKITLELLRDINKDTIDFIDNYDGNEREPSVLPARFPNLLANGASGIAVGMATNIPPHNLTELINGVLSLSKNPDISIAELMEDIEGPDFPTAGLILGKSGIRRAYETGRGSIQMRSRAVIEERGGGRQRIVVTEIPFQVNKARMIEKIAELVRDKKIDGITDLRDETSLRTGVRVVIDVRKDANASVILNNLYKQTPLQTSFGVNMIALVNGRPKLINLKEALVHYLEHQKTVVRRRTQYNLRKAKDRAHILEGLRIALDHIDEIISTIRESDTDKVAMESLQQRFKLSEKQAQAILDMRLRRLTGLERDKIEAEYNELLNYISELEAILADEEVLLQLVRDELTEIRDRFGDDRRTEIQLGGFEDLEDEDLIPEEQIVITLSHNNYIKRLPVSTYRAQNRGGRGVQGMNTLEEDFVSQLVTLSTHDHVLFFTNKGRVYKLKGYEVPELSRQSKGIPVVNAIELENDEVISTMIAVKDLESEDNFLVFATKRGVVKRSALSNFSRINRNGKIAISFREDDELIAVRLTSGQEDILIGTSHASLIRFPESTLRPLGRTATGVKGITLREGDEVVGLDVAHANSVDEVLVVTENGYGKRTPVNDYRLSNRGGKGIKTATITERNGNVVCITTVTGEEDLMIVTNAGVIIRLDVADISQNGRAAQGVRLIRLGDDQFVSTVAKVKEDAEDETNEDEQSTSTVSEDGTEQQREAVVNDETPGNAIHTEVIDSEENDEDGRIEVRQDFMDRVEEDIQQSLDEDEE

`NC(=S)N/N=C/C1=CC(c2ccc([N+](=O)[O-])cc2[N+](=O)[O-])C=C1c1ccc(Cl)cc1Cl` (configuration not stated) showed an MBC [1] of 38 µg/mL.
With `COC(=O)CC(=O)Nc1nc2c(s1)C[C@@H](NC(=O)c1[nH]c(C)c(Br)c1Cl)CC2` the IC50 [2] was 3700 nM, the MIC [3] was 8 µg/mL (≈ 16.3 µM) and the IC50 [4] was 56 nM.
For `O=C(O)c1cccc(N2C(=O)/C(=C/c3c[nH]c4ccccc34)SC2=S)c1`, the MIC [5] was 12 µg/mL (≈ 31.5 µM).
In the case of `CCCC(C(=O)O)N1C(=O)/C(=C/c2c[nH]c3ccccc23)SC1=S` (configuration not stated), the MIC [6] is reported as 250 µg/mL (≈ 694 µM).
With `C=C(C)[C@@H]1CC=C2c3sc(-c4cc(O)cc(O)c4)nc3C[C@@H](C)[C@]2(C)C1` the MIC [7] was 3.12 µg/mL (≈ 8.49 µM).
